The text below walks through data of patent US9492471B2, “Methods of treating a disease or disorder associated with Bruton'S Tyrosine Kinase” (Celgene Avilomics Research, Inc., priority 2013, dated 2016).

The structures appear in SMILES notation. Read-outs that look alike come from different tables or passages of the source.

Common to all, as to assay: HotSpot kinase profiling
Format in all cases: biochemical

One experiment concerns the target T1, EPHA6 (Homo sapiens, UniProt Q9UF33).
T1 construct: purchased Reaction Biology Corp
T1 sequence (Q9UF33 23-1036): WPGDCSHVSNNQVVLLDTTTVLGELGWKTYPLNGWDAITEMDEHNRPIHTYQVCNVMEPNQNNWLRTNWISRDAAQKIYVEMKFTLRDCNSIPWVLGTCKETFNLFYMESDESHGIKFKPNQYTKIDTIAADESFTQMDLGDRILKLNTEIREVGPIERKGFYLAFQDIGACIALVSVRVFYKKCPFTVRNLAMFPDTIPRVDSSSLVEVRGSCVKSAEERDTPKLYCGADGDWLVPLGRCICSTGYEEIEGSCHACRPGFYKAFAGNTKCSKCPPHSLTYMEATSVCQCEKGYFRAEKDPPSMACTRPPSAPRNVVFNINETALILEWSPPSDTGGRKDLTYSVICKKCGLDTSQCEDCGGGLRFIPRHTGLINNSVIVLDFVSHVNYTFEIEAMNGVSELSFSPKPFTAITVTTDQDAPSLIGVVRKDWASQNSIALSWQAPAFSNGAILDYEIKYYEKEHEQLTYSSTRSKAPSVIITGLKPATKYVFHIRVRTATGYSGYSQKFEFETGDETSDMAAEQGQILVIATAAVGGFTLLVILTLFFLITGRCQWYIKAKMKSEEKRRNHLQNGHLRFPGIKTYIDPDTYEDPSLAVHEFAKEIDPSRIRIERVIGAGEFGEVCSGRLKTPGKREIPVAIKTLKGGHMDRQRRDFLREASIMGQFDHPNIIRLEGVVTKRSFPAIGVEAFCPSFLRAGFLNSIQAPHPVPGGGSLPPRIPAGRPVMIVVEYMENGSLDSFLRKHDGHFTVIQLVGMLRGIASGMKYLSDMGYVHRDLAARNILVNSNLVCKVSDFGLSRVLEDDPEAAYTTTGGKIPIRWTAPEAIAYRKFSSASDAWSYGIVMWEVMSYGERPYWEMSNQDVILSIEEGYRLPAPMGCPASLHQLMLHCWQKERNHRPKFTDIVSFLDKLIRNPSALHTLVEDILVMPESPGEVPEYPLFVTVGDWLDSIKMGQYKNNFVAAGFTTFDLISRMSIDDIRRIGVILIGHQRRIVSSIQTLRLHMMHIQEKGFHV
The method in brief: (§1)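 Radio-isotope P81 filtration format. Substrate + required cofactors in reaction buffer, kinase added, 2 h RT. Stop, wash with 0.1% phosphoric acid, detect. % inhibition vs DMSO; mean of duplicates where repeated.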

The target in another experiment is T2, CAMK1d (Homo sapiens, UniProt Q8IU85).
T2 construct: purchased Reaction Biology Corp
T2 sequence (Q8IU85 whole entry): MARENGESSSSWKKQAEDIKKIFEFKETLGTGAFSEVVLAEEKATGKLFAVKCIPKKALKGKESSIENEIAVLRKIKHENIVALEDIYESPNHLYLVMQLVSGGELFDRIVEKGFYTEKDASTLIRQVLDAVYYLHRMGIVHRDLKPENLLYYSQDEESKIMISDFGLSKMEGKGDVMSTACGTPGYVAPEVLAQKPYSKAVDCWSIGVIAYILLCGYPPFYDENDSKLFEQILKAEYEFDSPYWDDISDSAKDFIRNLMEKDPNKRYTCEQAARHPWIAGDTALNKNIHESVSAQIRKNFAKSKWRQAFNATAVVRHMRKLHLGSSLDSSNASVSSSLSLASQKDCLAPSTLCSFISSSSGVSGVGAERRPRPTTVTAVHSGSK
The method in brief: as §1

Another experiment concerns the target T3, CAMK2g (Homo sapiens, UniProt Q13555).
T3 construct: purchased Reaction Biology Corp
In short, it runs like this: as §1

Another experiment has as its target T4, STK38/NDR1 (Homo sapiens, UniProt Q15208).
T4 construct: purchased Reaction Biology Corp
In short, it runs like this:
as §1

The next experiment addresses T5, PKD2/PRKD2 (Homo sapiens, UniProt Q9BZL6).
T5 construct: purchased Reaction Biology Corp
T5 sequence (Q9BZL6 1-878): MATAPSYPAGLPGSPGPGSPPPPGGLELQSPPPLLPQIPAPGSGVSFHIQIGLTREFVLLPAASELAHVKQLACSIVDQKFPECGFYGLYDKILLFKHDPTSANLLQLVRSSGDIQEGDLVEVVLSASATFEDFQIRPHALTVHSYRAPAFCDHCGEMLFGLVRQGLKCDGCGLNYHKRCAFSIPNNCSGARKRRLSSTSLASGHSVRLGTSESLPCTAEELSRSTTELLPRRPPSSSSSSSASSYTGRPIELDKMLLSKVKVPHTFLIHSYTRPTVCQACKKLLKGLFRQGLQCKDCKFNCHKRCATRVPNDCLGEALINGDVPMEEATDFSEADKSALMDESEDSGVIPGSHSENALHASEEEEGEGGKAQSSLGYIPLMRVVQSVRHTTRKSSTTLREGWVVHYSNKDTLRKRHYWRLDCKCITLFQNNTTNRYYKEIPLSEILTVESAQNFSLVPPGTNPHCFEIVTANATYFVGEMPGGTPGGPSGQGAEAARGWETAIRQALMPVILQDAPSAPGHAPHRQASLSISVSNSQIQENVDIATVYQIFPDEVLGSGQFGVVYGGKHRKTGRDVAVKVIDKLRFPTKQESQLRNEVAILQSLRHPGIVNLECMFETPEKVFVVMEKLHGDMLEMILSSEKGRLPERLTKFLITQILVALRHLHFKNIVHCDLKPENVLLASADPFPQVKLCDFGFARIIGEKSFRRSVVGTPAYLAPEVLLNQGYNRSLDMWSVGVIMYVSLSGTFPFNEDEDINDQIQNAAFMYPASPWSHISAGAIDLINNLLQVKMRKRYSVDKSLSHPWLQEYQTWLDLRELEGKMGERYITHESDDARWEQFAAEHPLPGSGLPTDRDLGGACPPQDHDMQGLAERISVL
The method in brief:
as §1

Where [1] appears, read: read-out: % Enzyme Activity (relative to DMSO controls) Run 1.
Where [2] appears, read: read-out: % Enzyme Activity (relative to DMSO controls) Run 2.

T3 sequence (Q13555 whole entry): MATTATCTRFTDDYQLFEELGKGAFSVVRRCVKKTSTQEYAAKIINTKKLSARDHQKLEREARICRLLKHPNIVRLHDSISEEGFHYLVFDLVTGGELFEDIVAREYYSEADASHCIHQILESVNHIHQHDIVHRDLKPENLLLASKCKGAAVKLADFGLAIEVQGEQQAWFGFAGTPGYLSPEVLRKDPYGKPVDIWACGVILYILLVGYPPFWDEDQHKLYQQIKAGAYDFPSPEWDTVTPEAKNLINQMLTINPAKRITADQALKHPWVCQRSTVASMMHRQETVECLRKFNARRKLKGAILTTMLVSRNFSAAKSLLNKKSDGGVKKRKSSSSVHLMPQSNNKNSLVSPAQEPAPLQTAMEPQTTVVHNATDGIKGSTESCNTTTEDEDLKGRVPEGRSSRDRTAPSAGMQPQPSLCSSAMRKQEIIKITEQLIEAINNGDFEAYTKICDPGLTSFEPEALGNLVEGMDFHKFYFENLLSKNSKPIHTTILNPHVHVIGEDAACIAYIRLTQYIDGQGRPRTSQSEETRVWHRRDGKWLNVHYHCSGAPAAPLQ
T4 sequence (Q15208 whole entry): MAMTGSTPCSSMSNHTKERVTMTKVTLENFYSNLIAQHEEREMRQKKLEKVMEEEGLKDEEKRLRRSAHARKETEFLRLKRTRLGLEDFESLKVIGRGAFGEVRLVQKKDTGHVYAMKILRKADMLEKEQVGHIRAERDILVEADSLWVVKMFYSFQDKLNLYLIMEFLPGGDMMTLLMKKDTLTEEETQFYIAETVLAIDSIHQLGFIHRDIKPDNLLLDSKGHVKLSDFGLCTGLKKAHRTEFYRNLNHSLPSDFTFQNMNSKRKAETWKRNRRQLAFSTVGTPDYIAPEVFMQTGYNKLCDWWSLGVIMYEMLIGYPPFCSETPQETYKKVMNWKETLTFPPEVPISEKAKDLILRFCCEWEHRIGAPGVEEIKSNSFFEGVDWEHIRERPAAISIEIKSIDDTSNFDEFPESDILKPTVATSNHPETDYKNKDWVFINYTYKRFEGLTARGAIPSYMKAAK

For orientation: inhibition means the relative decrease from the control value, in per cent. In the case of `C=CC(=O)Nc1cccc(Nc2nc(Nc3ccc(OCCOC)c(F)c3)ncc2F)c1` [Compound 2], the inhibition at 3 µM was 1.24% against EPHA6; -3.36% against CAMK1d; -7.18% on CAMK2g; 6.79% against STK38/NDR1; 13.7% against PKD2/PRKD2. Moreover, the remaining activity at 3 µM amounted to 95.5% on EPHA6 (setting [1]); 102% on EPHA6 (setting [2]); 104% on CAMK1d (setting [1]); 103% at CAMK1d (setting [2]); 104% on CAMK2g (setting [1]); 111% at CAMK2g (setting [2]). The remaining activity at 3 µM came to 92.7% on STK38/NDR1 (setting [1]), 93.7% on STK38/NDR1 (setting [2]), 86.4% on PKD2/PRKD2 (setting [1]) and 86.2% on PKD2/PRKD2 (setting [2]).
